Source: patent US9926302B2, “Heteroaryl substituted heterocyclyl sulfones” (priority 2014, dated 2018)

The compounds below were run against T1, Human CaV2.2 channels (Homo sapiens, UniProt Q00975) (assay: Fluorescence assay for CaV2.2 channels using potassium depolarization to induce channel opening (FLIPR, Fluo 4)). Conditions: 3 μM test compound; alternative assay buffer 30 mM KCl (inactivated channel state); HEK293 cells stably expressing human CaV2.2.
T1 construct: expressed in transfected cells
T1 sequence (P54289 947-1103): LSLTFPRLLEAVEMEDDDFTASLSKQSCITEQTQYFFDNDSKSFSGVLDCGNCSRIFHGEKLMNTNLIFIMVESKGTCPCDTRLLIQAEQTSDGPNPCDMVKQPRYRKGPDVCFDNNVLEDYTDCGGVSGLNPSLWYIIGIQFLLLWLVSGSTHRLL
T1 sequence (P54289 25-946): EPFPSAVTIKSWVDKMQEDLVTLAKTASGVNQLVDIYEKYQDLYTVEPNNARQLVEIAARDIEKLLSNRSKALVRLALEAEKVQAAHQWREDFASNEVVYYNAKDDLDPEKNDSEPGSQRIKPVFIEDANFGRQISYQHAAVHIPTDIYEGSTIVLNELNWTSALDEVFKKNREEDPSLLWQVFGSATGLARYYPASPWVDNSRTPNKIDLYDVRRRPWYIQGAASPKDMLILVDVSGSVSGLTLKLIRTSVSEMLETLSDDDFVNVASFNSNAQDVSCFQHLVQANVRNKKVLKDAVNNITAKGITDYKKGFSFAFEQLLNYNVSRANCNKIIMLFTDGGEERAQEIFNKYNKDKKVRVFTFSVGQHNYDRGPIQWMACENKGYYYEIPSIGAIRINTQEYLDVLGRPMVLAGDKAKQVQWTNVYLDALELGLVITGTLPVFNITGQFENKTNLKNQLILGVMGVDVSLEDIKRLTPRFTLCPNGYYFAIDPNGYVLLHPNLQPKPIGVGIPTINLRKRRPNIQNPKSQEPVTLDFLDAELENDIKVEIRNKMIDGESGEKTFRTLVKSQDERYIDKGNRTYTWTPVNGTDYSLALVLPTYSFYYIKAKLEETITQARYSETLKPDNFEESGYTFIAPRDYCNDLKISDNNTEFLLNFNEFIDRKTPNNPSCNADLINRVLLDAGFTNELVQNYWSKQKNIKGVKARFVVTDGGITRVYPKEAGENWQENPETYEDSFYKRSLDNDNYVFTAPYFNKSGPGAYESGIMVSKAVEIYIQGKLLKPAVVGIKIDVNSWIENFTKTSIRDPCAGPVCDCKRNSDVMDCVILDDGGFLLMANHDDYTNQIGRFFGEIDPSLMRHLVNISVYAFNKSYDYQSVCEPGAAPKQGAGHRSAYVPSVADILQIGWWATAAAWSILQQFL
T1 sequence (P54284 whole entry, further chain): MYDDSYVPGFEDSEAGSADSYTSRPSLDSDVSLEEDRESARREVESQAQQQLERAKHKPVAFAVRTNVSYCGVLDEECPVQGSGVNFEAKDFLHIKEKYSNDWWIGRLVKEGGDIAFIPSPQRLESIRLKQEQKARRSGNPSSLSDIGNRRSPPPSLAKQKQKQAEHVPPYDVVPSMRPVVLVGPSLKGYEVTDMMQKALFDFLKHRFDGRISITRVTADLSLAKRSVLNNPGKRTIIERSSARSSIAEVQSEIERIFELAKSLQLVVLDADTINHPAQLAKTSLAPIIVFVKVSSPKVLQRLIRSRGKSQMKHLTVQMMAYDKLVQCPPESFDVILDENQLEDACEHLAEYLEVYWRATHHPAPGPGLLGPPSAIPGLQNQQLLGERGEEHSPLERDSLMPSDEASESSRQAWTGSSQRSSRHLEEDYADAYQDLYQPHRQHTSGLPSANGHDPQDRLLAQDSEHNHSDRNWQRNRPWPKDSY
T1 sequence (Q00975 whole entry): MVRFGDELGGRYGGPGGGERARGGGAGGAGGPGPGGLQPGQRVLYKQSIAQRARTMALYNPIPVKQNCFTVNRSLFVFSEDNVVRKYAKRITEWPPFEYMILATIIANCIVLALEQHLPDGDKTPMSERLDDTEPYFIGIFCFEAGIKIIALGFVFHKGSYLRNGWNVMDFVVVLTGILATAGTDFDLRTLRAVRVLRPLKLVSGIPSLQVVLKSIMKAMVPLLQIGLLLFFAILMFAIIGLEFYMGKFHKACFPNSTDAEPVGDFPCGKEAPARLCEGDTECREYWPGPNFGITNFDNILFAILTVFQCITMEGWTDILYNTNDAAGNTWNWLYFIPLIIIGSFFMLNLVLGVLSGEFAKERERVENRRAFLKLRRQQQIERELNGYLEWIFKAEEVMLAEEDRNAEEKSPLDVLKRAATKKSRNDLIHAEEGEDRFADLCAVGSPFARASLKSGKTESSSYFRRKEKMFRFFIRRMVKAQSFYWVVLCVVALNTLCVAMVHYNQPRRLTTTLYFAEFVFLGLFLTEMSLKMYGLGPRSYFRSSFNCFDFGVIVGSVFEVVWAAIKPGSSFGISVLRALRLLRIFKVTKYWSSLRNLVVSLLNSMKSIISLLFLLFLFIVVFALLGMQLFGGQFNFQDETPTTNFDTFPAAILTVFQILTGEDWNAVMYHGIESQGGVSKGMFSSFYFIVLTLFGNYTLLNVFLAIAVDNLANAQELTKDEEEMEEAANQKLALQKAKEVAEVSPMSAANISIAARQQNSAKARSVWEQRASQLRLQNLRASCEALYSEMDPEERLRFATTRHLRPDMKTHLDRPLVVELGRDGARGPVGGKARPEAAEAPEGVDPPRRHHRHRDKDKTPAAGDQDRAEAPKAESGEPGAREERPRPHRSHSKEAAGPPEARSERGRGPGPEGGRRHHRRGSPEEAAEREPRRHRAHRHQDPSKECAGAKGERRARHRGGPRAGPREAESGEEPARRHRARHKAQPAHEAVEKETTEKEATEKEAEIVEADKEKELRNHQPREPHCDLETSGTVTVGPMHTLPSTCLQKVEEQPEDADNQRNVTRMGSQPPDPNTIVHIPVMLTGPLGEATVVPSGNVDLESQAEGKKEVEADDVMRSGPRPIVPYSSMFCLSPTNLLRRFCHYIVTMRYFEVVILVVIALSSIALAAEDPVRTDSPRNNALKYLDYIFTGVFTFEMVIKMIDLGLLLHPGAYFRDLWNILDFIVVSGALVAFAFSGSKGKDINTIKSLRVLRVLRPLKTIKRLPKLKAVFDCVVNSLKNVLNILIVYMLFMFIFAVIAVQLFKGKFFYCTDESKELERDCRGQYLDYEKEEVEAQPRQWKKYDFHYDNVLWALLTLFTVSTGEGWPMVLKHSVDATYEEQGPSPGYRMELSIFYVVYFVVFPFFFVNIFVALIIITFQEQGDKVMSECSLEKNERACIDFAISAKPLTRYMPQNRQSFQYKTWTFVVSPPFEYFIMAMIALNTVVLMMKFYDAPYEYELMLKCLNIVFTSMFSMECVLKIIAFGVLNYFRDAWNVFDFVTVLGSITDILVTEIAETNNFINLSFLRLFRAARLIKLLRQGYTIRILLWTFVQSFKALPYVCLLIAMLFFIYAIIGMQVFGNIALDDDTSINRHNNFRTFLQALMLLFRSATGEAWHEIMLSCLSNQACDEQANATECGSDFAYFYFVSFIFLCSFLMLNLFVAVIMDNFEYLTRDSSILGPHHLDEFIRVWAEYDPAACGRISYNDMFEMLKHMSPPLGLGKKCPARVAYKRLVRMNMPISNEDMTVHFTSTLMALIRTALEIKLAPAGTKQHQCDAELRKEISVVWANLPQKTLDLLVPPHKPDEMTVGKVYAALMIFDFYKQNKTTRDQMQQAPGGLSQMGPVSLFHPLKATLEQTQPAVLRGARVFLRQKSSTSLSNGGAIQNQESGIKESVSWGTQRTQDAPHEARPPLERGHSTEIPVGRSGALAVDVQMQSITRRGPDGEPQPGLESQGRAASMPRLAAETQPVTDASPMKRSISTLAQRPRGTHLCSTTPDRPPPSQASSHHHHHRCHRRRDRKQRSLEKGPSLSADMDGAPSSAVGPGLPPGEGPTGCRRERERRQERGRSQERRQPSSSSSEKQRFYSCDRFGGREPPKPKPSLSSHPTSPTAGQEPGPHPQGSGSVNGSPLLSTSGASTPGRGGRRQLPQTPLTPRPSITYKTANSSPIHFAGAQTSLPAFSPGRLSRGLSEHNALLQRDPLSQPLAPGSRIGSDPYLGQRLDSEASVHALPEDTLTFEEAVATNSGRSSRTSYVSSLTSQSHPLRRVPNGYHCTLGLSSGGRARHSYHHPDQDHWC
Type: cell-based
Source text: In the process, the Ca^2+ influx is quantified in the FLIPR assay with the aid of a Ca^2+-sensitive dye (type Fluo-4, Molecular Probes Europe BV, Leiden, the Netherlands) in a fluorescent imaging plate reader (FLIPR 3, Molecular Devices, Sunnyvale, USA), as described hereinafter.
2.1 Fluorescence Assay for CaV2.2 Channels Using Potassium Depolarization to Induce Channel Opening
Human CaV2.2 channels were stably expressed in HEK293 cells together with alpha2-delta and beta subunits of voltage gated calcium channels. In addition, an inwardly rectifying potassium channel (Kir2.3) was stably expressed in these cells to augment control of the cell membrane potential by the concentration of extracellular potassium ions. Raise of the extracellular potassium concentration leads to depolarization of the membrane potential and thus regulates the voltage dependent state of CaV2.2 channels. For preparation, cells were seeded in black poly-D-lysine coated 96-well plates (Becton Dickinson, Biocoat 4640) in 100 μL medium [500 mL DMEM/F-12 plus Glutamax (Invitrogen 31331-093) plus 5.5 mL MEM NEAA 100× (Invitrogen 11140-035) plus 50 mL FBS decomplemented (Invitrogen 10270-106) plus 200 μg/mL Geneticin (Invitrogen 10131-027) plus 50 μg/mL Hygromycin B (Invitrogen 10687-010) plus 2 μg/mL Blasticidin (anti-bl5b Invivo-Gen) plus 0.2 μg/mL Puromycin (A 11138-03)] at a cell density of 30.000 cells per well. Plates were incubated at 37° C. (5% CO2) for 20 to 23 h. On the day of experiment medium was discarded and cells were loaded with Fluo 4 by addition of 100 μL of basic assay buffer (10 mM HEPES, 1 mM KCl, 149 mM NaCl, 0.8 mM CaCl2, 1.7 mM MgCl2, 10 mM Glucose, 0.1% BSA. pH 7.4) containing 2 μM Fluo 4 (Molecular Probes; F-14201), 0.01% pluronic acid (Molecular Probes; P-6866) and 2.5 mM probenecid (Molecular Probes; P36400). Cells were incubated in the dark at 25° C. for 60 min. Then dye containing buffer was discarded and 100 μL basic (1 mM KCl) or alternative (30 mM KCl) assay buffer was added. The alternative assay buffer contained altered concentrations of KCl (30 mM) and NaCl (120 mM) and was used in order to promote the inactivated channel state. After that 25 μL of basic or alternative assay buffer with or without test compound were added and cells were incubated again in the dark at 25° C. for 15 min. Fluorescence intensity was measured on a FLIPR 3 instrument (Molecular Devices Corp., Sunnyvale, Calif.) with excitation at 480 nm and emission at 535 nm. After continuously reading fluorescence for 30 sec, 50 μL of basic assay buffer containing 210 mM KCl (NaCl omitted) were added for depolarization. Peak fluorescent signal intensity was determined and the amplitude of the peak signal, normalized to base line, was used to measure channel inhibition by test compounds.

SMILES	Activity Category: %-Inhib (CaV2.2) @3 μM @30 mM KCl
Cc1ccc(OCC2CC(C)(S(=O)(=O)c3cccc(C(F)(F)F)c3)CCO2)cn1 (single isomer, unassigned) [SC-112, 2-Methyl-5-[[4-methyl-4-[[3-(trifluoromethyl)phenyl]sulfonyl]-tetrahydro-pyran-2-yl]-methoxy]-pyridine]	C (%-Inhibition >40% up to ≤75%)
Cc1ccc(OCC2CC(C)(S(=O)(=O)c3cccc(C(F)(F)F)c3)CCO2)cn1 (single isomer, unassigned) [SC-113, 2-Methyl-5-[[4-methyl-4-[[3-(trifluoromethyl)phenyl]sulfonyl]-tetrahydro-pyran-2-yl]-methoxy]-pyridine]	B (%-Inhibition >75% up to ≤95%)
CC1(S(=O)(=O)c2cccc(C(F)(F)F)c2)CCOC(c2cncc(C(F)(F)F)c2)C1 (single isomer, unassigned) [SC-116, 3-[4-Methyl-4-[[3-(trifluoromethyl)phenyl]sulfonyl]-tetrahydro-pyran-2-yl]-5-(trifluoromethyl)-pyridine]	A (%-Inhibition >95%)
CC1(S(=O)(=O)c2cccc(C(F)(F)F)c2)CCOC(COc2ccc(C3CC3)nc2)C1 (single isomer, unassigned) [SC-117, 2-Cyclopropyl-5-[[4-methyl-4-[[3-(trifluoromethyl)phenyl]sulfonyl]-tetrahydro-pyran-2-yl]-methoxy]-pyridine]	B (%-Inhibition >75% up to ≤95%)
CC1(S(=O)(=O)c2cccc(C(F)(F)F)c2)CCOC(c2nnc(C(F)(F)F)o2)C1 (single isomer, unassigned) [SC-121, 2-[4-Methyl-4-[[3-(trifluoromethyl)phenyl]sulfonyl]-tetrahydro-pyran-2-yl]-5-(trifluoromethyl)-[1,3,4]oxadiazole]	C (%-Inhibition >40% up to ≤75%)
CC1(S(=O)(=O)c2cccc(C(F)(F)F)c2)CCOC(c2nnc(C(F)(F)F)o2)C1 (single isomer, unassigned) [SC-122, 2-[4-Methyl-4-[[3-(trifluoromethyl)phenyl]sulfonyl]-tetrahydro-pyran-2-yl]-5-(trifluoromethyl)-[1,3,4]oxadiazole]	B (%-Inhibition >75% up to ≤95%)
CC1(S(=O)(=O)c2cccc(C(F)(F)F)c2)CCOC(c2nnc(C(F)F)o2)C1 (single isomer, unassigned) [SC-123, 2-(Difluoro-methyl)-5-[4-methyl-4-[[3-(trifluoromethyl)phenyl]sulfonyl]-tetrahydro-pyran-2-yl]-[1,3,4]oxadiazole]	B (%-Inhibition >75% up to ≤95%)
CC1(S(=O)(=O)c2cccc(C(F)(F)F)c2)CCOC(c2nnc(C(F)F)o2)C1 (single isomer, unassigned) [SC-124, 2-(Difluoro-methyl)-5-[4-methyl-4-[[3-(trifluoromethyl)phenyl]sulfonyl]-tetrahydro-pyran-2-yl]-[1,3,4]oxadiazole]	C (%-Inhibition >40% up to ≤75%)
CC(C)c1nnc(C2CC(C)(S(=O)(=O)c3cccc(C(F)(F)F)c3)CCO2)o1 (single isomer, unassigned) [SC-125, 2-Isopropyl-5-[4-methyl-4-[[3-(trifluoromethyl)phenyl]sulfonyl]-tetrahydro-pyran-2-yl]-[1,3,4]oxadiazole]	C (%-Inhibition >40% up to ≤75%)
CC(C)c1nnc(C2CC(C)(S(=O)(=O)c3cccc(C(F)(F)F)c3)CCO2)o1 (single isomer, unassigned) [SC-126, 2-Isopropyl-5-[4-methyl-4-[[3-(trifluoromethyl)phenyl]sulfonyl]-tetrahydro-pyran-2-yl]-[1,3,4]oxadiazole]	B (%-Inhibition >75% up to ≤95%)
CC1(S(=O)(=O)c2cccc(C(F)(F)F)c2)CCOC(c2nnc(C3CC3)o2)C1 (single isomer, unassigned) [SC-128, 2-Cyclopropyl-5-[4-methyl-4-[[3-(trifluoromethyl)phenyl]sulfonyl]-tetrahydro-pyran-2-yl]-[1,3,4]oxadiazole]	B (%-Inhibition >75% up to ≤95%)
CC1(S(=O)(=O)c2cccc(C(F)(F)F)c2)CCOC(c2nnc(C3CC3)o2)C1 (single isomer, unassigned) [SC-129, 2-Cyclopropyl-5-[4-methyl-4-[[3-(trifluoromethyl)phenyl]sulfonyl]-tetrahydro-pyran-2-yl]-[1,3,4]oxadiazole]	C (%-Inhibition >40% up to ≤75%)

Same assay, conditions: HEK293, 3 μM test compound; alternative assay buffer 30 mM KCl (inactivated channel state); HEK293 cells stably expressing human CaV2.2; read-out: Activity Category: %-Inhib (CaV2.2) @3 μM @30 mM KCl

SMILES	inhibition at 3 µM [%]
Cn1nc(C2CC2)cc1C1CC(C)(S(=O)(=O)c2cccc(C(F)(F)F)c2)CCO1 (racemic) [SC-434, 3-Cyclopropyl-1-methyl-5-[4-methyl-4-[[3-(trifluoromethyl)phenyl]sulfonyl]-tetrahydro-pyran-2-yl]-1H-pyrazole]	75 to 95
CC1(S(=O)(=O)c2cccc(C(F)(F)F)c2)CCOC(c2ncc(C3CC3)cc2Cl)C1 (racemic) [SC-435, 3-Chloro-5-cyclopropyl-2-[4-methyl-4-[[3-(trifluoromethyl)phenyl]sulfonyl]-tetrahydro-pyran-2-yl]-pyridine]	> 95
CC1(S(=O)(=O)c2cccc(C(F)(F)F)c2)CCOC(c2ncc(OC(F)F)cc2Cl)C1 (racemic) [SC-438, 3-Chloro-5-(difluoro-methoxy)-2-[4-methyl-4-[[3-(trifluoromethyl)phenyl]sulfonyl]-tetrahydro-pyran-2-yl]-pyridine]	> 95
Cc1cc(S(C)(=O)=O)cnc1C1CC(C)(S(=O)(=O)c2cccc(C(F)(F)F)c2)CCO1 (racemic) [SC-441, 3-Methyl-5-methylsulfonyl-2-[4-methyl-4-[[3-(trifluoromethyl)phenyl]sulfonyl]-tetrahydro-pyran-2-yl]-pyridine]	75 to 95
Cc1cc(S(C)(=O)=O)cnc1C1CC(C)(S(=O)(=O)c2cccc(OC(F)(F)F)c2)CCO1 (racemic) [SC-451, 3-Methyl-5-methylsulfonyl-2-[4-methyl-4-[[3-(trifluoromethyloxy)-phenyl]sulfonyl]-tetrahydro-pyran-2-yl]-pyridine]	40 to 75
CC1(S(=O)(=O)c2cccc(C(F)(F)F)c2)CCOC(c2noc(C3CC3)n2)C1 (single isomer, unassigned) [SC-110, 5-Cyclopropyl-3-[4-methyl-4-[[3-(trifluoromethyl)phenyl]sulfonyl]-tetrahydro-pyran-2-yl]-[1,2,4]oxadiazole]	75 to 95
CC1(S(=O)(=O)c2cccc(C(F)(F)F)c2)CCOC(c2cncc(C(F)(F)F)c2)C1 (single isomer, unassigned) [SC-115, 3-[4-Methyl-4-[[3-(trifluoromethyl)phenyl]sulfonyl]-tetrahydro-pyran-2-yl]-5-(trifluoromethyl)-pyridine]	75 to 95
CC1(S(=O)(=O)c2cccc(C(F)(F)F)c2)CCOC(COc2ccc(C3CC3)nc2)C1 (single isomer, unassigned) [SC-118, 2-Cyclopropyl-5-[[4-methyl-4-[[3-(trifluoromethyl)phenyl]sulfonyl]-tetrahydro-pyran-2-yl]-methoxy]-pyridine]	> 95
CC1(S(=O)(=O)c2cccc(C(F)(F)F)c2)CCOC(c2ncc(S(C)(=O)=O)cc2F)C1 (single isomer, unassigned) [SC-119, 3-Fluoro-5-methylsulfonyl-2-[4-methyl-4-[[3-(trifluoromethyl)phenyl]sulfonyl]-tetrahydro-pyran-2-yl]-pyridine]	75 to 95
CC1(S(=O)(=O)c2cccc(C(F)(F)F)c2)CCOC(c2ncc(S(C)(=O)=O)cc2Cl)C1 (single isomer, unassigned) [SC-130, 3-Chloro-5-methylsulfonyl-2-[4-methyl-4-[[3-(trifluoromethyl)phenyl]sulfonyl]-tetrahydro-pyran-2-yl]-pyridine]	75 to 95
